Consider two molecules from PubChem BioAssay AID1259407 (Chemical Carcinogenesis Research Information System (CCRIS), 2018).

This data set relates to CCRIS mutagenicity, Ames/micronucleus/aberration tests. Put plainly: CCRIS mutagenicity studies.

The structures appear in SMILES notation. Calls of active or inactive are those of the source. No rule for the calls is given here.

`CC(C)NCC(O)c1ccc(O)c(O)c1` (stereo not drawn): the mutagenic call runs as follows: (End Point: IN VITRO CHROMOSOMAL ABERRATIONS, Test System: CHINESE HAMSTER OVARY CELLS, Metabolic Activation: NONE) “inactive; negative”; (End Point: IN VITRO CHROMOSOMAL ABERRATIONS, Test System: CHINESE HAMSTER OVARY CELLS, Metabolic Activation: RAT, LIVER, S-9, AROCLOR 1254) “active; positive”; (Test System: AMES SALMONELLA TYPHIMURIUM, Strain/Indicator: TA98, Metabolic Activation: HAMSTER, LIVER, S-9, AROCLOR 1254, Method: PREINCUBATION) “inactive; negative”; (Test System: AMES SALMONELLA TYPHIMURIUM, Strain/Indicator: TA98, Metabolic Activation: NONE, Method: PREINCUBATION) “inactive; negative”; (Test System: AMES SALMONELLA TYPHIMURIUM, Strain/Indicator: TA98, Metabolic Activation: RAT, LIVER, S-9, AROCLOR 1254, Method: PREINCUBATION) “inactive; negative”; (Test System: AMES SALMONELLA TYPHIMURIUM, Strain/Indicator: TA100, Metabolic Activation: HAMSTER, LIVER, S-9, AROCLOR 1254, Method: PREINCUBATION) “inactive; negative”. Also, the mutagenic call is, setting by setting: (Test System: AMES SALMONELLA TYPHIMURIUM, Strain/Indicator: TA100, Metabolic Activation: NONE, Method: PREINCUBATION) “inactive; negative”; (Test System: AMES SALMONELLA TYPHIMURIUM, Strain/Indicator: TA100, Metabolic Activation: RAT, LIVER, S-9, AROCLOR 1254, Method: PREINCUBATION) “inactive; negative”; (Test System: AMES SALMONELLA TYPHIMURIUM, Strain/Indicator: TA1535, Metabolic Activation: HAMSTER, LIVER, S-9, AROCLOR 1254, Method: PREINCUBATION) “inactive; negative”; (Test System: AMES SALMONELLA TYPHIMURIUM, Strain/Indicator: TA1535, Metabolic Activation: NONE, Method: PREINCUBATION) “inactive; negative”; (Test System: AMES SALMONELLA TYPHIMURIUM, Strain/Indicator: TA1535, Metabolic Activation: RAT, LIVER, S-9, AROCLOR 1254, Method: PREINCUBATION) “inactive; negative”; (Test System: AMES SALMONELLA TYPHIMURIUM, Strain/Indicator: TA1537, Metabolic Activation: HAMSTER, LIVER, S-9, AROCLOR 1254, Method: PREINCUBATION) “inactive; negative”. In addition, the mutagenic call by setting is: (Test System: AMES SALMONELLA TYPHIMURIUM, Strain/Indicator: TA1537, Metabolic Activation: NONE, Method: PREINCUBATION) “inactive; negative”; (Test System: AMES SALMONELLA TYPHIMURIUM, Strain/Indicator: TA1537, Metabolic Activation: RAT, LIVER, S-9, AROCLOR 1254, Method: PREINCUBATION) “inactive; negative”.

Consider `C=Cc1ccccn1`, for which the mutagenic call by setting is: (End Point: In vitro chromosomal aberrations, Test System: Chinese hamster lung (CHL/IU) cells, Metabolic Activation: Rat, Liver, S9, Phenobarbital and 5,6-benzoflavone) “active; positive (structural changes)”; (Test System: AMES SALMONELLA TYPHIMURIUM, Strain/Indicator: TA98, Metabolic Activation: NONE, Method: STANDARD PLATE) “inactive; negative”; (Test System: AMES SALMONELLA TYPHIMURIUM, Strain/Indicator: TA98, Metabolic Activation: RAT, LIVER, S-9, AROCLOR 1254, Method: STANDARD PLATE) “inactive; negative”; (Test System: AMES SALMONELLA TYPHIMURIUM, Strain/Indicator: TA100, Metabolic Activation: NONE, Method: STANDARD PLATE) “inactive; negative”; (Test System: AMES SALMONELLA TYPHIMURIUM, Strain/Indicator: TA100, Metabolic Activation: RAT, LIVER, S-9, AROCLOR 1254, Method: STANDARD PLATE) “inactive; negative”; (Test System: AMES SALMONELLA TYPHIMURIUM, Strain/Indicator: TA1535, Metabolic Activation: NONE, Method: STANDARD PLATE) “inactive; negative”. For the same molecule, the mutagenic call by setting is: (Test System: AMES SALMONELLA TYPHIMURIUM, Strain/Indicator: TA1535, Metabolic Activation: RAT, LIVER, S-9, AROCLOR 1254, Method: STANDARD PLATE) “inactive; negative”; (Test System: AMES SALMONELLA TYPHIMURIUM, Strain/Indicator: TA1538, Metabolic Activation: NONE, Method: STANDARD PLATE) “inactive; negative”; (Test System: AMES SALMONELLA TYPHIMURIUM, Strain/Indicator: TA1538, Metabolic Activation: RAT, LIVER, S-9, AROCLOR 1254, Method: STANDARD PLATE) “inactive; negative”; (Test System: Ames Salmonella typhimurium, Strain/Indicator: TA98, Metabolic Activation: None, Method: Preincubation) “inactive; negative”; (Test System: Ames Salmonella typhimurium, Strain/Indicator: TA98, Metabolic Activation: Rat, Liver, S9, Sodium phenobarbital and 5,6-benzoflavone (10%), Method: Preincubation) “inactive; negative”; (Test System: Ames Salmonella typhimurium, Strain/Indicator: TA100, Metabolic Activation: None, Method: Preincubation) “inactive; negative”. For the same molecule, the mutagenic call (Test System: Ames Salmonella typhimurium, Strain/Indicator: TA100, Metabolic Activation: Rat, Liver, S9, Sodium phenobarbital and 5,6-benzoflavone (10%), Method: Preincubation) is “inactive; negative”; the mutagenic call (Test System: Ames Salmonella typhimurium, Strain/Indicator: TA1535, Metabolic Activation: None, Method: Preincubation) was “inactive; negative”; the mutagenic call (Test System: Ames Salmonella typhimurium, Strain/Indicator: TA1535, Metabolic Activation: Rat, Liver, S9, Sodium phenobarbital and 5,6-benzoflavone (10%), Method: Preincubation) was “inactive; negative”; the mutagenic call (Test System: Ames Salmonella typhimurium, Strain/Indicator: TA1537, Metabolic Activation: None, Method: Preincubation) was “inactive; negative”; the mutagenic call (Test System: Ames Salmonella typhimurium, Strain/Indicator: TA1537, Metabolic Activation: Rat, Liver, S9, Sodium phenobarbital and 5,6-benzoflavone (10%), Method: Preincubation) is “inactive; negative”; the mutagenic call (Test System: E. coli, Strain/Indicator: WP2uvrA/pKM101, Metabolic Activation: Rat, Liver, S9, Sodium phenobarbital and 5,6-benzoflavone (10%), Method: Preincubation) is “active; positive”. In addition, under “Test System: UDS RAT HEPATOCYTES, Strain/Indicator: THY INCORP, Metabolic Activation: NONE”, the mutagenic call was “inactive; negative”.
